The source made the active and inactive calls. The calls are words filed in the database; no cut-off is given here.
system: HL-60; assay: Induction of HL60 cell differentiation in correlation with affinity to human VDR; format: functional, cell-based

C=C1/C(=C\C=C2/CCC[C@]3(C)[C@@H]([C@H](C)CCCC(C)(C)O)CC[C@@H]23)C[C@@H](O)[C@H](CCCO)[C@@H]1O was tested. Which Activity did it give?
Its Activity is “Active”.

With C=C1/C(=C\C=C2/CCC[C@]3(C)[C@@H]([C@H](C)CCCC(C)(C)O)CC[C@@H]23)C[C@@H](O)[C@H](C)[C@@H]1O as the compound, how does the Activity read?
The Activity was “Active”.

Which Activity does the source give for C=C1/C(=C\C=C2/CCC[C@]3(C)[C@@H]([C@H](C)CCCC(C)(C)O)CC[C@@H]23)C[C@H](O)[C@@H](OCCC)[C@H]1O here?
Its Activity is “inactive”.

Which Activity does the source give for C=C1/C(=C\C=C2/CCC[C@]3(C)[C@@H]([C@H](C)CCCC(C)(C)O)CC[C@@H]23)C[C@@H](O)[C@H](OCCCO)[C@@H]1O here?
Its Activity is “inactive”.

C=C1/C(=C\C=C2/CCC[C@]3(C)[C@@H]([C@H](C)CCCC(C)(C)O)CC[C@@H]23)C[C@@H](O)[C@H](CCC)[C@@H]1O was tested. Which Activity did it give?
The Activity was “Active”.

Reference: ChEMBL document CHEMBL1146844, “Probing a water channel near the A-ring of receptor-bound 1 alpha,25-dihydroxyvitamin D3 with selected 2 alpha-substituted analogues” (J Med Chem, 2006)
